# Measured values reported in publication PMC3984054 (Bioorganic & medicinal chemistry, 2013).
# Where two headings read alike, the source gives them in different places. Marks after values point to notes of the source that are not given here.
# Legend:
# [1] = tested on: PrP^Sc in dividing ScN2a-cl3 cells; assay: cells; format: cell-based, mouse; conditions: for EC50: Mus musculus
# [2] = in vitro; conditions: mouse
# [3] = tested on: dividing ScN2a-cl3 cells
# [4] = tested on: PrP^Sc in stationary-phase ScN2a-cl3 cells; format: cell-based, mouse
# [5] = in vivo; conditions: female, FVB, mouse, po, 10 mg/kg, Cmax ± SD
# [6] = tested on: PrP^Sc in dividing cells; conditions: cited from earlier work
# [7] = tested on: PrP^Sc in stationary-phase cells; conditions: cited from earlier work
# [8] = read-out: EC50 in dividing cells (text and footnote)
molecule,measurement,setting,value
"CN1CCc2cccc3c2[C@H]1Cc1ccc(O)c(O)c1-3 [Apomorphine, reference compound]",EC50,[1]; read-out: EC50 ± SEM (antiprion activity by ELISA),> 10000 nM
COc1ccccc1OCCNCC(O)COc1cccc2[nH]c3ccccc3c12 (stereo not shown) [Carvedilol],CC50,[2],5000 to 6100 nM
"Nc1c(/N=N/c2ccc(-c3ccc(/N=N/c4cc(S(=O)(=O)[O-])c5ccccc5c4N)cc3)cc2)cc(S(=O)(=O)[O-])c2ccccc12.[Na+].[Na+] [Congo Red, reference compound]",antiprion potency in dividing cells,[1],good potency
same,EC50,[1]; [8],~400 nM
same,effect on cell viability,[3],no effects on cell viability
CCOc1ccc(/N=N/c2ccc(N)cc2N)cc1 [Ethoxazine],CC50,[3],> 10000 nM
CC(NCCC(c1ccccc1)c1ccccc1)c1ccccc1 (stereo not shown) [Fendiline],EC50,[2],4300 to 9600 nM
Cc1ccc2[nH]c3c(c2c1)CCCC3NCCCN(C)C (stereo not shown) [IND23308],Reduction (%) Stationary PrP^Sc,[4],94 ^c %
same,percent reduction in PrP^Sc in the HTS,[4],70%
same,effect on cell viability,[3],no effect on cell viability
c1cncc(-c2nc(-c3c[nH]c4ccccc34)cs2)c1 [IND24350],EC50,[1]; [8],< 1000 nM
CC(=O)c1ccc(NC(=O)c2sc3nc4c(cc3c2N)CCCC4)cc1 [IND24609],antiprion potency in dividing cells,[1],inactive
COc1ccc(-c2cc(-c3ccc(OC)cc3O)[nH]n2)cc1 [IND25807],EC50,[1]; [8],< 1000 nM
Cn1c(=N)n(CC(=O)c2ccc(Cl)cc2)c2ccccc21 [IND26326],EC50,[1]; [8],> 1000 nM
CCOc1ccc(NC(=O)c2cc3ccccc3cc2O)cc1 [IND31751],EC50,[1]; [8],< 1000 nM
COc1ccc(C(=O)Nc2ccc(-c3csc(C)n3)cc2)cc1 [IND33145],EC50,[1]; [8],< 1000 nM
OCCNCc1cc(Br)ccc1OCc1ccc(Cl)cc1Cl [IND34452],EC50,[1]; [8],> 1000 nM
CN(C)CCNc1nc(-c2ccc(Cl)cc2)nc2ccccc12 [IND34921],EC50,[1]; [8],> 1000 nM
COc1cccc(Nc2nc(N)c3ccccc3n2)c1 [IND35916],EC50,[1]; [8],> 1000 nM
COc1ccc(CCNC(=O)c2sc3nc(-c4cccs4)ccc3c2N)cc1OC [IND42103],antiprion potency in dividing cells,[1],inactive
COc1cc(N)c(-c2ccc3cc(OC)c(OC)cc3n2)cc1OC [IND44355],EC50,[1]; [8],> 1000 nM
Cn1c(=N)n(CC(=O)c2ccc(Br)cc2)c2ccccc21 [IND44723],EC50,[1]; [8],> 1000 nM
CN1CCN(c2ccc(Nc3ccnc4cc(Cl)ccc34)cc2)CC1 [IND45193],Cmax,[5]; brain,1610 ± 230 nM
same,Cmax,[5]; plasma,130 ± 10 nM
same,EC50,[1]; [8],> 1000 nM
COc1cc(CNCCO)cc(Br)c1OCc1ccccc1Cl [IND46380],EC50,[1]; [8],> 1000 nM
COc1ccc2cc3c(N)c(C(=O)Nc4ccc(C(C)=O)cc4)sc3nc2c1 [IND52025],EC50,[1]; [8],< 1000 nM
N#Cc1sc2nc(-c3ccc4c(c3)OCO4)ccc2c1N [IND52851],Cmax,[5]; brain,1020 ± 710 nM
same,Cmax,[5]; plasma,410 ± 250 nM
COc1ccc(-c2nc3cc(NC(=O)c4ccc(OCc5ccccc5)cc4)ccc3o2)cc1 [IND114202],EC50,[1]; [8],< 1000 nM
COc1ccc2cc1Oc1ccc(cc1)C[C@H]1c3cc(c(OC)cc3CCN1C)Oc1c(OC)c(OC)cc3c1[C@H](C2)N(C)CC3 [Tetrandine],CC50,[3],5000 to 6100 nM
CCN(CC)CCCC(C)Nc1c2ccc(Cl)cc2nc2ccc(OC)cc12 (stereo not shown) [quinacrine],activity in dividing cells,[6],rapidly cleared
same,activity in stationary-phase cells,[7],relatively ineffective
Dextran [reference compound],EC50 ± SEM (antiprion activity by ELISA),[1],0.40 ± 0.08 (mg/L)
same,antiprion potency in dividing cells,[1],good potency
Enoxaparin [reference compound],EC50 ± SEM (antiprion activity by ELISA),[1],>10 (mg/L)
same,LC50 ± SEM (cell viability by calcein),[3],>10 (mg/L)
